Source: US20210147343A1 (priority 2018, published 2021)
Read-outs that look alike come from different tables or passages of the source.

How the values were obtained:
[1] = target: T1, kappa opioid receptor (KOR) (Homo sapiens, UniProt P41145); assay: cell-based; conditions: after activation with dynorphin B
T1 construct: host or cells: CHO-K1
Excerpt: KOR cAMP Antagonist Assay

[2] = target: mu opioid receptor (MOR) (Homo sapiens, UniProt P35372); assay: MOR cAMP agonist assay
[3] = kOR cAMP IC50, CHO-K1 cells expressing kOR
[4] = CHO-K1 cells expressing kOR, read-out: kOR cAMP IC50

mu opioid receptor (MOR), sequence (P35372 whole entry): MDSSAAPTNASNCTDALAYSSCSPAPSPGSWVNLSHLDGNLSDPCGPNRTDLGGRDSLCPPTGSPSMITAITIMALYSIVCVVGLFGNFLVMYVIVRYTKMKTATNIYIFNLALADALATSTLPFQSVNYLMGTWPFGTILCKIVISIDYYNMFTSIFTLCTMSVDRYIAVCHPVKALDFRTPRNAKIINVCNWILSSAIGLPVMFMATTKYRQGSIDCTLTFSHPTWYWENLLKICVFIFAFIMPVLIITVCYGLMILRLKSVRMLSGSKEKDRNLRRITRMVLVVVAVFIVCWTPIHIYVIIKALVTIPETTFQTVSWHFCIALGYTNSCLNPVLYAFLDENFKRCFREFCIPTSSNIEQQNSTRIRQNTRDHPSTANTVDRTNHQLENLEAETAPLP
T1 sequence (P41145 whole entry): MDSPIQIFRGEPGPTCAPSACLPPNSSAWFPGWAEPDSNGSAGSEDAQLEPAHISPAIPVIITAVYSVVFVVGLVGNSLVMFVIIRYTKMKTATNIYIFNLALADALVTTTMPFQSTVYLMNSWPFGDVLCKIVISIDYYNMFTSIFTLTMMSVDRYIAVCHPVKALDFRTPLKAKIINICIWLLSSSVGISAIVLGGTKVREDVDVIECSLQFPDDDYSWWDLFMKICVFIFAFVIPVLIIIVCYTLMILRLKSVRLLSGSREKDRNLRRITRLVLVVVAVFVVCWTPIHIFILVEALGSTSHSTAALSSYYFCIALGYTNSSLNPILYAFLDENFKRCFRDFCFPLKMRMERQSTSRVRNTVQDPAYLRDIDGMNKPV

| SMILES | IC50 [1, 3] | EC50 [2] | IC50 [1, 4] |
| --- | --- | --- | --- |
| CN(C)[C@H](CNC(=O)[C@H]1C[C@@]1(C)c1ccccc1)Cc1ccc(O)cc1 [Compound B-11, (1S,2R)—N—((S)-2-(dimethylamino)-3-(4-hydroxyphenyl)propyl)-2-methyl-2-phenylcyclopropane-1-carboxamide] | > 1000 nM | 100 to 1000 nM |  |
| CN(C)[C@H](CNC(=O)[C@@H]1C[C@]1(C)c1ccccc1)Cc1ccc(O)cc1 [Compound B-12, (1R,2S)—N—((S)-2-(dimethylamino)-3-(4-hydroxyphenyl)propyl)-2-methyl-2-phenylcyclopropane-1-carboxamide] | < 100 nM | > 1000 nM |  |
| Cc1cc(O)cc(C)c1C[C@@H](CNC(=O)[C@@H]1C[C@@]1(C)c1ccccc1)N(C)C [Compound B-13, (1R,2R)—N—((S)-2-(dimethylamino)-3-(4-hydroxy-2,6-dimethylphenyl)propyl)-2-methyl-2-phenylcyclopropane-1-carboxamide] | < 100 nM | < 100 nM |  |
| CN(C)[C@H](CNC(=O)[C@@H]1C[C@@]1(C)c1ccccc1)Cc1c(F)cc(O)cc1F [Compound B-14, (1R,2R)—N—((S)-3-(2,6-difluoro-4-hydroxyphenyl)-2-(dimethylamino)propyl)-2-methyl-2-phenylcyclopropane-1-carboxamide] | > 1000 nM | < 100 nM |  |
| C[C@@]1(c2ccccc2)C[C@H]1C(=O)NC[C@@H]1Cc2ccc(O)cc2N1 [Compound B-16, (1R,2R)—N—(((S)-6-hydroxyindolin-2-yl)methyl)-2-methyl-2-phenylcyclopropane-1-carboxamide] |  | > 1000 nM | > 1000 nM |
| CN(C)[C@H](CNC(=O)[C@@H]1C[C@H]1c1ccccc1)Cc1ccc(O)cc1 [Compound B-17, (1R,2R)—N—((S)-2-(dimethylamino)-3-(4-hydroxyphenyl)propyl)-2-phenylcyclopropane-1-carboxamide] | 100 to 1000 nM | < 100 nM |  |
| CN(C)[C@H](CNC(=O)[C@@H]1C[C@]1(C)c1ccccc1)Cc1ccc2[nH]ncc2c1 [Compound B-19, (1R,2S)—N—((S)-2-(dimethylamino)-3-(1H-indazol-5-yl)propyl)-2-methyl-2-phenylcyclopropane-1-carboxamide] | > 1000 nM | < 100 nM |  |
| CN(C)[C@H](CNC(=O)[C@@H]1C[C@@]1(C)c1ccccc1)Cc1ccc2[nH]ncc2c1 [Compound B-20, (1R,2R)—N—((S)-2-(dimethylamino)-3-(1H-indazol-5-yl)propyl)-2-methyl-2-phenylcyclopropane-1-carboxamide] | > 1000 nM | < 100 nM |  |
| CN(C)[C@H](CNC(=O)[C@@H]1C[C@]1(C)c1ccccc1)Cc1ccc(C(=O)NC2CC2)c(F)c1 [Compound B-39, N-cyclopropyl-4-((S)-2-(dimethylamino)-3-((1R,2S)-2-methyl-2-phenylcyclopropane-1-carboxamido)propyl)-2-fluorobenzamide] | > 1000 nM | < 100 nM |  |
| Cc1cc(C[C@@H](CNC(=O)[C@@H]2C[C@]2(C)c2ccccc2)N(C)CC2CC2)ccc1O [Compound B-40, (1R,2S)—N—((S)-2-((cyclopropylmethyl)(methyl)amino)-3-(4-hydroxy-3-methylphenyl)propyl)-2-methyl-2-phenylcyclopropane-1-carboxamide] | > 1000 nM | < 100 nM |  |
| C[C@]1(c2ccccc2)C[C@H]1C(=O)NC[C@H](Cc1ccc2[nH]ncc2c1)N1CCOCC1 [Compound B-43, (1R,2S)—N—((S)-3-(2H-indazol-5-yl)-2-morpholinopropyl)-2-methyl-2-phenylcyclopropane-1-carboxamide] |  | > 1000 nM | > 1000 nM |
| CNC(=O)c1ccc(C[C@@H](CNC(=O)[C@@H]2C[C@]2(C)c2ccccc2)N(C)C)cc1F [Compound B-46, 4-((S)-2-(dimethylamino)-3-((1R,2S)-2-methyl-2-phenylcyclopropane-1-carboxamido)propyl)-2-fluoro-N-methylbenzamide] | > 1000 nM | < 100 nM |  |
